Test results published in patent US7202216B2 (The Board of Trustees of the Leland Stanford Junior …, priority 2002, dated 2007).
Where no end group is shown, it is not given here.

What was measured:
[1] = BBM fractions prepared from rat small intestinal mucosa
[2] = Amount of peptides digested after 15 hours (Table 1, samples H1P0-H5P0); format: in vitro ADME
[3] = tested on: gastric and pancreatic proteases (pepsin, trypsin, chymotrypsin, elastase, carboxypeptidase)
[4] = tested on: small intestinal brush-border membrane (BBM) enzymes; assay: Brush-border membrane (BBM) digestion of gliadin peptides; settings: 12 ng/μl BBM protein, rat small intestinal mucosa
[5] = molecular target: T1, tissue transglutaminase (tTGase) (Homo sapiens, UniProt P21980); settings: vs natural substrate fibrinogen; cited from earlier work
T1 sequence (P21980 1-687): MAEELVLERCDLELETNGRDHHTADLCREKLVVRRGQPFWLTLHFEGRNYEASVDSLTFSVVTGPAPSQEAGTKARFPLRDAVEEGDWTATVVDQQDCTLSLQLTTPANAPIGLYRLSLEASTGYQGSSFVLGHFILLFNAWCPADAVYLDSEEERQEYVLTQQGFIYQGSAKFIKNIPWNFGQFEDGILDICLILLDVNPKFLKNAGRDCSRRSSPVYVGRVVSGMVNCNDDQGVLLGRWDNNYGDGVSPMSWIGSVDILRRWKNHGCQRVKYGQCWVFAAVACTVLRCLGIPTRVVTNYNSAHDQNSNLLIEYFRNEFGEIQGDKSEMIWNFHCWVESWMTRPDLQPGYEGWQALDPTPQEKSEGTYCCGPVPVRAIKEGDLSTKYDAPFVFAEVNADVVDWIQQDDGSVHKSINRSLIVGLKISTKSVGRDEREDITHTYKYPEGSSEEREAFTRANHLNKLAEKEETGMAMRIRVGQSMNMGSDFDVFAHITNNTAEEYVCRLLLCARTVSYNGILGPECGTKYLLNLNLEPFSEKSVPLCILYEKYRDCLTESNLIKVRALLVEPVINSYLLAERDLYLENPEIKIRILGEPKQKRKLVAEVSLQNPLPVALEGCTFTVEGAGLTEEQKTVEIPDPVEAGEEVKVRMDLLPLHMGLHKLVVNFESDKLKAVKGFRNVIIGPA

Row | Amount of Peptides Digested after 15 hours ([2]; sample H1P0) [%] | Amount of Peptides Digested after 15 hours ([2]; sample H2P0) [%] | Amount of Peptides Digested after 15 hours ([2]; sample H3P0) [%] | Amount of Peptides Digested after 15 hours ([2]; sample H4P0) [%] | Amount of Peptides Digested after 15 hours ([2]; sample H5P0) [%] | Sequence | not cleaved [1] | stability on prolonged exposure to proteases [3] | half-life of digestion [4] [h] | specificity of tTGase relative to its target peptide sequence in fibrinogen [5] [fold]
1 | – | – | – | – | – | LQLQPFPQPQLPYPQPQLPYPQPQLPYPQPQPF | half-life of digestion >20 h; remains intact | – | – | –
2 | – | – | – | – | – | PQPQLPYPQPQLPY (listed as Triticum aestivum) [α-gliadin derived tTGase substrate peptide] | – | – | – | 5
3 | >90 | >61 | >87 | >96 | >96 | QLQPFPQPQLPY [Control A] | – | – | – | –
4 | >90 | >85 | >95 | >95 | >95 | WQIPEQSR [Control B] | – | – | – | –

Row | Sequence | Amount of Peptides Digested after 15 hours ([2]; sample H1P0) [%] | Amount of Peptides Digested after 15 hours ([2]; sample H2P0) [%] | Amount of Peptides Digested after 15 hours ([2]; sample H3P0) [%] | Amount of Peptides Digested after 15 hours ([2]; sample H4P0) [%] | Amount of Peptides Digested after 15 hours ([2]; sample H5P0) [%] | not cleaved [1] | stability on prolonged exposure to proteases [3] | half-life of digestion [4] [h] | specificity of tTGase relative to its target peptide sequence in fibrinogen [5] [fold]
5 | LQLQPFPQPQLPYPQPQLPYPQPQLPYPQPQPF [33-mer] | <20 | <20 | <20 | <20 | <20 | – | remained intact | > 20 | –
